Results on seven compounds are retold here after US20160318987A1 (MEDIMMUNE LIMITED, priority 2013, published 2016).

pEC50: −log10 of the molar value. Read-outs that look alike come from different tables or passages of the source. Where a SMILES comes first, the peptide text is derived from it. Where no end group is shown, it is not given here. Side-chain parts run from the residue outwards. [ ]: non-standard residue; d: D form. αMeF = C[C@](N)(Cc1ccccc1)C(=O)O; Nle = CCCC[C@H](N)C(=O)O; Aib = CC(C)(N)C(=O)O; Mal = maleimide

By pEC50 is commonly meant −log10 of the EC50, conventionally taken in molar units.

The target of one experiment is T1, hGLP-1R (Homo sapiens, UniProt P43220).
T1 construct: expressed in transfected cells
T1 sequence (P43220 24-463): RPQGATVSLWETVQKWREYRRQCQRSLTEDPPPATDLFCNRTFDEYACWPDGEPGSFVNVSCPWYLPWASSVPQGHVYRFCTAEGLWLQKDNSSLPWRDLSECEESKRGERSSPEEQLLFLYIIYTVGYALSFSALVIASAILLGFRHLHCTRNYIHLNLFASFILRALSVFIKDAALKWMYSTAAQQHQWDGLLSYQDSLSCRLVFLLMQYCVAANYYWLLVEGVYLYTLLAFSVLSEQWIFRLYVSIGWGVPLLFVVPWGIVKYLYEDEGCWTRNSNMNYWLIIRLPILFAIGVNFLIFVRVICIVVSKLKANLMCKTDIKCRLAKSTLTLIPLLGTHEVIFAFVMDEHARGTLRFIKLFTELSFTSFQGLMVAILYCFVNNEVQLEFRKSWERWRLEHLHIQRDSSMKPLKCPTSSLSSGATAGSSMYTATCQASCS
The experiment is described as follows: cAMP functional assay, cells expressing human GLP-1 receptor (primary assay). The note with it: n = 2. The class given is cell-based. As for the experimental part: (§1) The biological activities/receptor potencies of the synthetic GLP-1 peptides described herein are suitably tested for biological activity, e.g., stimulation of one or more cellular receptor responses. Stable cell lines expressing human, mouse, rat, or dog GLP-1 receptor (GLP-1R), glucagon receptor (GCGR) or glucose-dependent insulinotropic peptide (gastric inhibitory polypeptide) receptor (GIPR) are generated in HEK293 cells or CHO cells by standard methods.
(§2) cAMP assays were performed using “assay buffer”: Assay Buffer: 0.1% BSA (Sigma #A3059) in HBSS (Sigma #H8264) with 25 mM HEPES, pH 7.4 and containing 0.5 mM IBMX (Sigma #17018).
(§3) Low protein binding 384-well plates (Greiner #781280) are used to perform eleven 1 in 5 serial dilutions of test samples which are made in assay buffer. All sample dilutions are made in duplicate.
(§4) A frozen cryo-vial of cells expressing the receptor of interest is thawed rapidly in a water-bath, transferred to pre-warmed assay buffer and spun at 240× g for 5 minutes. Cells are re-suspended in assay buffer at a batch-dependent optimized concentration (e.g. hGCGR cells at 2×10^5 cells/ml, hGLP-1R and hGIPR cells at 1×10^5 cells /ml).
(§5) From the dilution plate, a 5 μL replica is stamped onto a black shallow-well u-bottom 384-well plate (Corning #3676). To this, 5 μL cell suspension is added and the plates incubated at room temperature for 30 minutes.
(§6) cAMP levels are measured using a commercially available cAMP dynamic 2 HTRF kit (Cisbio, Cat #62AM4PEJ), following the two step protocol as per manufacturer's recommendations. In brief; anti-cAMP cryptate (donor fluorophore) and cAMP-d2 (acceptor fluorophore) are made up separately by diluting each 1/20 in conjugate & lysis buffer provided in the kit. 5 μL anti-cAMP cryptate is added to all wells of the assay plate, and 5 μL cAMP-d2 is added to all wells except non-specific binding (NSB) wells, to which conjugate and lysis buffer are added. Plates are incubated at room temperature for one hour and then read on an Envision (Perkin Elmer) using excitation wavelength of 320 nm and emission wavelengths of 620 nm & 665 nm. EC50 values of the synthetic peptides determined in cAMP assays are then determined.

In another experiment the target is T2, hGIP-R (Homo sapiens, UniProt P48546).
T2 construct: expressed in transfected cells
T2 sequence (P48546 22-466): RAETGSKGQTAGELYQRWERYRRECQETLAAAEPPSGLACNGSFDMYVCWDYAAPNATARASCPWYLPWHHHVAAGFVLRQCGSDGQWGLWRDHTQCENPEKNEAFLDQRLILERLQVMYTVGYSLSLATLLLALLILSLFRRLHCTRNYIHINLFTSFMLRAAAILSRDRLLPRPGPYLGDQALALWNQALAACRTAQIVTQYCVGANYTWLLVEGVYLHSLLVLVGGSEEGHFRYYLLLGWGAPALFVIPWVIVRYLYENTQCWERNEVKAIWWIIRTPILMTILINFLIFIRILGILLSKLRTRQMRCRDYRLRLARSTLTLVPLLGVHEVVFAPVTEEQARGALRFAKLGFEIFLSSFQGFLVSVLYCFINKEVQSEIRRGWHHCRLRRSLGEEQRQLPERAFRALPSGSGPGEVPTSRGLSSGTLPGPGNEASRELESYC
The experiment can be described thus: cAMP functional assay, cells expressing human GIP receptor (primary assay). The class given is cell-based. The note with it: n = 2. As to the method:
as §1, §2, §3, §4, §5, §6

As for `CC[C@H](C)[C@H](NC(=O)[C@](C)(Cc1ccccc1)NC(=O)[C@H](CCC(=O)O)NC(=O)[C@H](CCCCN)NC(=O)[C@H](C)NC(=O)[C@H](C)NC(=O)[C@H](CCC(N)=O)NC(=O)CNC(=O)[C@H](CCC(=O)O)NC(=O)[C@H](CC(C)C)NC(=O)[C@](C)(Cc1ccccc1)NC(=O)[C@H](CO)NC(=O)[C@H](CO)NC(=O)[C@@H](NC(=O)[C@H](CC(=O)O)NC(=O)[C@H](CO)NC(=O)[C@@H](NC(=O)[C@H](Cc1ccccc1)NC(=O)[C@H](CO)NC(=O)CNC(=O)[C@H](CCC(=O)O)NC(=O)C(C)(C)NC(=O)[C@@H](N)Cc1c[nH]cn1)[C@@H](C)O)C(C)C)C(=O)N[C@@H](C)C(=O)N[C@@](C)(Cc1ccccc1)C(=O)N[C@@H](CC(C)C)C(=O)N[C@H](C(=O)N[C@@H](CCCCN)C(=O)NCC(=O)N[C@@H](CCCNC(=N)N)C(N)=O)C(C)C` [SEQ ID NO: 37, H-(Aib)^2-EG-(S)^5-FTSDV^10 SS-(α-MeF)^13-LE^15 GQAAK^20 E-(α-MeF)^22-IA-(α-MeF)^25 LVKGR^30] (H-H[Aib]EGSFTSDVSS[αMeF]LEGQAAKE[αMeF]IA[αMeF]LVKGR-NH2), the pEC50 is 9.72 on hGLP-1R and 6.99 on hGIP-R. The like results for `CC[C@H](C)[C@H](NC(=O)[C@](C)(Cc1ccccc1)NC(=O)[C@H](CCC(=O)O)NC(=O)[C@H](CCCCN)NC(=O)[C@H](C)NC(=O)[C@H](C)NC(=O)[C@H](CCC(N)=O)NC(=O)CNC(=O)[C@H](CCC(=O)O)NC(=O)[C@H](CC(C)C)NC(=O)[C@H](Cc1ccc(O)cc1)NC(=O)[C@H](CO)NC(=O)[C@H](CO)NC(=O)[C@@H](NC(=O)[C@H](CC(=O)O)NC(=O)[C@H](CO)NC(=O)[C@@H](NC(=O)[C@](C)(Cc1ccccc1)NC(=O)[C@@H](NC(=O)CNC(=O)[C@H](CCC(=O)O)NC(=O)C(C)(C)NC(=O)[C@@H](N)Cc1c[nH]cn1)[C@@H](C)O)[C@@H](C)O)C(C)C)C(=O)N[C@@H](C)C(=O)N[C@@](C)(Cc1ccccc1)C(=O)N[C@@H](CC(C)C)C(=O)N[C@H](C(=O)N[C@@H](CCCCN)C(=O)NCC(=O)N[C@@H](CCCNC(=N)N)C(N)=O)C(C)C` [SEQ ID NO: 31, H-(Aib)^2-EGT^5-(α-MeF)^6-TSDV^10 SSYLE^15 GQAAK^20 E-(α-MeF)^22-IA-(α-MeF)^25 LVKGR^30] were, in that order, 10.81 and 6.99. In the case of “H-(Aib)^2-EG-(S)^5-(α-MeF)^6-TSDV^10 SS-(α-MeF)^13-LE^15 GQAAK^20 E-(α-MeF)^22-IA-(α-MeF)^25 LVKG-(G)^30-(SSG)3-(Cys-Mal-mPEG)[40 kD] (H[Aib]EGS[αMeF]TSDVSS[αMeF]LEGQAAKE[αMeF]IA[αMeF]LVKGGSSGSSGSSGC([Mal-mPEG 40 kDa]); not fully specified (C-terminus); printed as H-(Aib)^2-EG-(S)^5-(α-MeF)^6-TSDV^10 SS-(α-MeF)^13-LE^15 GQAAK^20 E-(α-MeF)^22-IA-(α-MeF)^25 LVKG-(G)^30-(SSG)3-(Cys-Mal-mPEG)[40 kD]) [SEQ ID NO: 50]”, the pEC50 with hGLP-1R (read-out: Primary assay EC50 (n = 2) hGLP-1R) was 10.56. Turning to `CC[C@H](C)[C@H](NC(=O)[C@](C)(Cc1ccccc1)NC(=O)[C@H](CCC(=O)O)NC(=O)[C@H](CCCCN)NC(=O)[C@H](C)NC(=O)[C@H](C)NC(=O)[C@H](CCC(N)=O)NC(=O)CNC(=O)[C@H](CCC(=O)O)NC(=O)[C@H](CC(C)C)NC(=O)[C@H](Cc1ccc(O)cc1)NC(=O)[C@H](CO)NC(=O)[C@H](CO)NC(=O)[C@@H](NC(=O)[C@H](CC(=O)O)NC(=O)[C@H](CO)NC(=O)[C@@H](NC(=O)[C@](C)(Cc1ccccc1)NC(=O)[C@H](CO)NC(=O)CNC(=O)[C@H](CCC(=O)O)NC(=O)C(C)(C)NC(=O)[C@@H](N)Cc1c[nH]cn1)[C@@H](C)O)C(C)C)C(=O)N[C@@H](C)C(=O)N[C@@](C)(Cc1ccccc1)C(=O)N[C@@H](CC(C)C)C(=O)N[C@H](C(=O)N[C@@H](CCCCN)C(=O)NCC(=O)N[C@@H](CCCNC(=N)N)C(N)=O)C(C)C` [SEQ ID NO: 36, H-(Aib)^2-EG-(S)^5-(α-MeF)^6-TSDV^10 SSYLE^15 GQAAK^20 E-(α-MeF)^22-IA-(α-MeF)^25 LVKGR^30] (H-H[Aib]EGS[αMeF]TSDVSSYLEGQAAKE[αMeF]IA[αMeF]LVKGR-NH2), the pEC50 at hGLP-1R is 10.57; at hGIP-R, 6.99. Take `CC[C@H](C)[C@H](NC(=O)[C@](C)(Cc1ccccc1)NC(=O)[C@H](CCC(=O)O)NC(=O)[C@H](CCCCN)NC(=O)[C@H](C)NC(=O)[C@H](C)NC(=O)[C@H](CCC(N)=O)NC(=O)CNC(=O)[C@H](CCC(=O)O)NC(=O)[C@H](CC(C)C)NC(=O)[C@](C)(Cc1ccccc1)NC(=O)[C@H](CO)NC(=O)[C@H](CO)NC(=O)[C@@H](NC(=O)[C@H](CC(=O)O)NC(=O)[C@H](CO)NC(=O)[C@@H](NC(=O)[C@H](Cc1ccccc1)NC(=O)[C@@H](NC(=O)CNC(=O)[C@H](CCC(=O)O)NC(=O)C(C)(C)NC(=O)[C@@H](N)Cc1c[nH]cn1)[C@@H](C)O)[C@@H](C)O)C(C)C)C(=O)N[C@@H](C)C(=O)N[C@@](C)(Cc1ccccc1)C(=O)N[C@@H](CC(C)C)C(=O)N[C@H](C(=O)N[C@@H](CCCCN)C(=O)NCC(=O)N[C@@H](CCCNC(=N)N)C(N)=O)C(C)C` [SEQ ID NO: 32, H-(Aib)^2-EGT^5-FTSDV^10 SS-(α-MeF)^13-LE^15 GQAAK^20 E-(α-MeF)^22-IA-(α-MeF)^25 LVKGR^30] (H-H[Aib]EGTFTSDVSS[αMeF]LEGQAAKE[αMeF]IA[αMeF]LVKGR-NH2): the pEC50 is 9.99 at hGLP-1R and 6.99 at hGIP-R. For `CCCC[C@H](NC(=O)[C@H](C)NC(=O)[C@@H](NC(=O)[C@H](CCCC)NC(=O)[C@H](CCC(=O)O)NC(=O)[C@H](CCCCN)NC(=O)[C@H](C)NC(=O)[C@H](C)NC(=O)[C@H](CCC(N)=O)NC(=O)CNC(=O)[C@H](CCC(=O)O)NC(=O)[C@H](CC(C)C)NC(=O)[C@H](CCCC)NC(=O)[C@H](CO)NC(=O)[C@H](CO)NC(=O)[C@@H](NC(=O)[C@H](CC(=O)O)NC(=O)[C@H](CO)NC(=O)[C@@H](NC(=O)[C@H](CCCC)NC(=O)[C@@H](NC(=O)CNC(=O)[C@H](CCC(=O)O)NC(=O)C(C)(C)NC(=O)[C@@H](N)Cc1c[nH]cn1)[C@@H](C)O)[C@@H](C)O)C(C)C)[C@@H](C)CC)C(=O)N[C@@H](CC(C)C)C(=O)N[C@H](C(=O)N[C@@H](CCCCN)C(=O)NCC(=O)N[C@@H](CCCNC(=N)N)C(N)=O)C(C)C` [SEQ ID NO: 17, H-(Aib)^2-EGT^5-(Nle)^6-TSDV^10 SS-(Nle)^13-LE^15 GQAAK^20 E-(Nle)^22-IA-(Nle)^25 LVKGR^30] (H-H[Aib]EGT[Nle]TSDVSS[Nle]LEGQAAKE[Nle]IA[Nle]LVKGR-NH2), the pEC50 at hGLP-1R is 8.46; at hGIP-R, 6.99. As to `CC[C@H](C)[C@H](NC(=O)[C@](C)(Cc1ccccc1)NC(=O)[C@H](CCC(=O)O)NC(=O)[C@H](CCCCN)NC(=O)[C@H](C)NC(=O)[C@H](C)NC(=O)[C@H](CCC(N)=O)NC(=O)CNC(=O)[C@H](CCC(=O)O)NC(=O)[C@H](CC(C)C)NC(=O)[C@](C)(Cc1ccccc1)NC(=O)[C@H](CO)NC(=O)[C@H](CO)NC(=O)[C@@H](NC(=O)[C@H](CC(=O)O)NC(=O)[C@H](CO)NC(=O)[C@@H](NC(=O)[C@](C)(Cc1ccccc1)NC(=O)[C@@H](NC(=O)CNC(=O)[C@H](CCC(=O)O)NC(=O)C(C)(C)NC(=O)[C@@H](N)Cc1c[nH]cn1)[C@@H](C)O)[C@@H](C)O)C(C)C)C(=O)N[C@@H](C)C(=O)N[C@@H](Cc1c[nH]c2ccccc12)C(=O)N[C@@H](CC(C)C)C(=O)N[C@H](C(=O)N[C@@H](CCCCN)C(=O)NCC(=O)N[C@@H](CCCNC(=N)N)C(N)=O)C(C)C` [SEQ ID NO: 29, H-(Aib)^2-EGT^5-(α-MeF)^6-TSDV^10 SS-(α-MeF)^13-LE^15 GQAAK^20 E-(α-MeF)^22-IAW^25 LVKGR^30] (H-H[Aib]EGT[αMeF]TSDVSS[αMeF]LEGQAAKE[αMeF]IAWLVKGR-NH2), the pEC50 at hGLP-1R was 10.90; at hGIP-R, 6.99.
